Test results from US11505534B2, “Highly diastereoselective construction of the 4,5-spirocycle via palladium-catalyzed intramolecular alkenylation” (The University of Chicago, priority 2017, dated 2022).

Experiments:
[1] = test system: interleukin-2 (IL-2) production in a B cell lymphoma cell line; assay: suppression of interleukin-2 (IL-2) production in a B cell lymphoma cell line; format: cell-based; settings: 100 micromolar (μM) concentrations of the compounds, preliminary biological testing
Description: In some embodiments, the presently disclosed subject matter provides phainanoid analogs, as well as compounds that can be used as synthetic intermediates in preparing phainanoids and phainanoid analogs. In particular, the presently disclosed phainanoid analogs include the benzofuran-based 4,5-spirocycle with the strained exocyclic olefin motif present in the “western” part of the natural product phainanoids. Given the inclusion of this motif, it is believed that the presently disclosed phainanoid analogs can be useful as novel immunosuppressive agents, e.g., for the treatment of diseases characterized by an aberrant immune response, such as autoimmune and/or inflammatory diseases, as well as during transplant operations.

SMILES	immunosuppressive activity (suppression of interleukin-2 (IL-2) production) [1]	melting point [°C]
C[C@]1(/C=C2\Oc3ccccc3C2=O)[C@@H](O)CC[C@]2(C)c3ccccc3CC[C@@H]12 [Compound 25]	complete suppression	–
C[C@]12C[C@@]3(Oc4ccccc4C3=O)C1=CC[C@]1(C)c3ccccc3CC[C@@H]21 [Compound 8]	complete suppression	174 to 177
C[C@@]12CCCC=C1[C@@]1(C2)Oc2ccccc2C1=O [Compound 7]	complete suppression	–
